Assay results: patent publication US20110171136A1, “OPTICAL IMAGING PROBES” (priority 2002, published 2011)

System: A431 cells
Assay: in vitro uptake competition experiments with glucose
Assay type: cell-based, human
Settings: 1 mM (monovalent) or 0.7 mM (bivalent) probe, 30 minutes, 50 and 100 mM glucose respectively, FIGS. 3B and 3D
Description: The A431 cell line was obtained from the American Type Culture Collection and grown in DMEM with 4.5 g/l glucose, supplemented with 10% fetal bovine serum (Life Technologies, NY) and cultured in a humidified atmosphere containing 5% CO2 and 95% air at 37° C.
Utilizing the monovalent and bivalent Cy5.5-conjugated glucose probes, in vitro uptake competition experiments were performed by incubating A431 cells with 1 mM (monovalent) or 0.7 mM (bivalent) of each probe, for 30 minutes, in the presence of 50 and 100 mM glucose, respectively. After removal of the medium, cells were rinsed with ice-cold PBS and visualized under confocal microscopy. […] Under the same conditions, free Cy5.5 uptake by A431 cells was not inhibited by incubation with glucose.

SMILES: CCN1\C(=C/C=C/C=C/C2=[N+](CCCCCC(=O)O)c3ccc4c(S(=O)(=O)O)cc(S(=O)(=O)O)cc4c3C2(C)C)C(C)(C)c2c1ccc1c(S(=O)(=O)[O-])cc(S(=O)(=O)O)cc21 [free Cy5.5]
- inhibition of cellular uptake of probe by glucose: not inhibited
